Earlier results on four compounds are cited in paper PMC9486541, “Design, synthesis and cytotoxic evaluation of novel betulonic acid-diazine derivatives as potential antitumor agents” (Frontiers in Chemistry, 2022).

pIC50: −log10 of the molar value.

Set-up in all cases: method as in list in b5
Common to all, as to conditions: Figure 1, representative BoA derivatives; ref list in b5; cited from earlier work

For series [1], the system named is Hela cells.
Series [2] deals with DLD-1 cells.
The test system of series [3] is SW872.
Series [4] has as its system HCT-116 cells.

Regarding `C=C(C)[C@@H]1CC[C@]2(C(=O)OCCN3CCNCC3)CC[C@]3(C)C(CCC4[C@@]5(C)CC[C@H](O)C(C)(C)C5CC[C@]43C)C12` (stereo partly shown) [Compound 4], the pIC50 in series [1] is 5.69.
For `C=C(C)C1CCC2(COC(C)=O)CCC3(C)C(CCC4C5(C)CCC(OC6OC(CO)C(O)C(O)C6O)C(C)(C)C5CCC43C)C12` (stereo not shown) [Compound 6], in series [2], the pIC50 is 5.35.
With `C=C(C)[C@@H]1CC[C@]2(C(=O)OCC(N)(CO)CO)CC[C@]3(C)[C@H](CC[C@@H]4[C@@]5(C)CC[C@H](OC(C)=O)C(C)(C)[C@@H]5CC[C@]43C)[C@@H]12` [Compound 7], the pIC50 in series [3] is 5.74.
For `C=C(C)C1CCC2(C(=O)O)CCC3(C)C(CCC4C5(C)CC(=Cc6ccc([N+](=O)[O-])cc6)C(O)C(C)(C)C5CCC43C)C12` (stereo not shown) [Compound 5], the pIC50 in series [4] was 5.87.
